Source: patent publication US20260183405A1, “SMALL MOLECULE-DRUG-CONJUGATES CLEAVABLE IN A TUMOR MICROENVIRONMENT” (priority 2022, published 2026)
pIC50: −log10 of the molar value. Where two headings read alike, the source gives them in different places.

Columns and labels:
Test in all cases: Cytotoxicity in vitro in the presence and absence of elastase (MTT assay)
Type in all cases: cell-based
HT29 = HT29 cells, 72 h incubation
Experimental: (§1) Cultivation of cells was performed according to standard procedures with the media recommended by the provider. The cells, in a total volume of 100 μL, were seeded in a 96-well plate with a white bottom (#3610). After a 24 h incubation period at 37° C. and 5% CO2, the medium was exchanged by adding 90 μL fresh medium. The treatment started by adding the test compound in 10 μL of culture medium to the cells in triplicates. Concentrations ranging from 10^−5 M to 10^−13 M were chosen. Two identically treated sets of samples were prepared. One set was treated with the test compound alone, whereas to the second set the compound and 10 nM elastase (NE) was added followed by a 72 h incubation period at 37° C. and 5% CO2. The proliferation was detected using the MTT assay (ATCC). At the end of the incubation period the MTT reagent was added to all samples for 4h. Lysis of the cells followed by addition of the detergent was done overnight. The formed dye was detected at 570 nm. The proliferation of untreated but otherwise identically handled cells was defined as the 100% value. The dose response curves allowed the determination of the respective IC50 values. […]

SUM149PT = SUM149PT cells, 72 h incubation
Experimental: as §1

NCI-H292 = NCI-H292 cells, 72 h incubation
Experimental: as §1

786-O = 786-O cells, 72 h incubation
Experimental: as §1

[1] = compound alone, read-out: IC50 without neutrophil elastase
[2] = with 10 nM elastase (NE), read-out: IC50 with neutrophil elastase

CCc1c2c(nc3ccccc13)-c1cc3c(c(=O)n1C2)COC(=O)[C@@]3(CC)OC(=O)[C@@H](NC(=O)[C@@H]1CCCN1C(=O)[C@H](CC(=O)O)NC(=O)CCOCCOCCOCCNC(=O)CCC(=O)Nc1nnc(S(N)(=O)=O)s1)C(C)C [Compound 4, sodium (4S)-4,11-diethyl-3,14-dioxo-3,4,12,14-tetrahydro-1H-pyrano[3′,4′:6,7]indolizino[1,2-b]quinolin-4-yl 1-{(2S)-2-(carboxylatomethyl)-4,17,20-trioxo-20-[(5-sulfamoyl-1,3,4-thiadiazol-2-yl)amino]-7,10,13-trioxa-3,16-diazaicosanan-1-oyl}-L-prolyl-L-valinate]
pIC50 (HT29; [1]): < 6.00 | pIC50 (HT29; [2]): 7.00 to 8.00 | pIC50 (SUM149PT; [1]): 6.00 to 7.00 | pIC50 (SUM149PT; [2]): 8.00 to 9.00 | pIC50 (NCI-H292; [1]): 6.00 to 7.00 | pIC50 (NCI-H292; [2]): 8.00 to 9.00 | pIC50 (786-O; [1]): 6.00 to 7.00 | pIC50 (786-O; [2]): 8.00 to 9.00

CCCNC(=O)Nc1cccc(S(=O)(=O)Nc2cccc([C@@H](CC(=O)O)NC(=O)Nc3ccc(NC(=O)NCCOCCOCCOCCC(=O)N[C@@H](CC(N)=O)C(=O)N4CCC[C@H]4C(=O)N[C@H](C(=O)N[C@@H](CCN(C(=O)CO)[C@@H](c4cc(-c5cc(F)ccc5F)cn4Cc4ccccc4)C(C)(C)C)C(=O)NC)C(C)C)cc3)c2)c1 [Compound 19, sodium N^2-(14-{4-[({(1R)-2-carboxylato-1-[3-({3-[(propylcarbamoyl)amino]benzene-1-sulfonyl}amino)phenyl]ethyl}carbamoyl)amino]anilino}-14-oxo-4,7,10-trioxa-13-azatetradecanan-1-oyl)-L-asparaginyl-L-prolyl-N-[(2S)-4-[{(1R)-1-[1-benzyl-4-(2,5-difluorophenyl)-1H-pyrrol-2-yl]-2,2-dimethylpropyl}(hydroxyacetyl)amino]-1-(methylamino)-1-oxobutan-2-yl]-L-valinamide]
pIC50 (HT29; [1]): < 6.00 | pIC50 (HT29; [2]): 8.00 to 9.00 | pIC50 (SUM149PT; [1]): < 6.00 | pIC50 (SUM149PT; [2]): 9.00 to 10.00 | pIC50 (NCI-H292; [1]): < 6.00 | pIC50 (NCI-H292; [2]): 9.00 to 10.00 | pIC50 (786-O; [1]): < 6.00 | pIC50 (786-O; [2]): 8.00 to 9.00

CC[C@@]1(OC(=O)[C@@H](NC(=O)[C@@H]2CCCN2C(=O)[C@H](CC(=O)O)NC(=O)CCOCCOCCOCCNC(=O)CCC(=O)Nc2nnc(S(N)(=O)=O)s2)C(C)C)C(=O)OCc2c1cc1n(c2=O)Cc2c-1nc1cc(F)c(C)c3c1c2[C@@H](N)CC3 [Compound 12, sodium (1S,9S)-1-amino-9-ethyl-5-fluoro-4-methyl-10,13-dioxo-2,3,9,10,13,15-hexahydro-1H,12H-benzo[de]pyrano[3′,4′:6,7]indolizino[1,2-b]quinolin-9-yl 1-{(2S)-2-(carboxylatomethyl)-4,17,20-trioxo-20-[(5-sulfamoyl-1,3,4-thiadiazol-2-yl)amino]-7,10,13-trioxa-3,16-diazaicosanan-1-oyl}-L-prolyl-L-valinate]
pIC50 (HT29; [1]): < 6.00 | pIC50 (HT29; [2]): 7.00 to 8.00 | pIC50 (SUM149PT; [1]): 6.00 to 7.00 | pIC50 (SUM149PT; [2]): 8.00 to 9.00 | pIC50 (NCI-H292; [1]): 6.00 to 7.00 | pIC50 (NCI-H292; [2]): 8.00 to 9.00 | pIC50 (786-O; [1]): 6.00 to 7.00 | pIC50 (786-O; [2]): 8.00 to 9.00

CCCNC(=O)Nc1cccc(S(=O)(=O)Nc2cccc([C@@H](CC(=O)O)NC(=O)Nc3ccc(NC(=O)NCCOCCOCCOCCC(=O)N[C@@H](CC(=O)O)C(=O)N4CCC[C@H]4C(=O)N[C@H](C(=O)OCCCNC(=O)[C@H](Cc4ccccc4)NC(=O)[C@H](C)[C@@H](OC)[C@@H]4CCCN4C(=O)C[C@@H](OC)[C@H]([C@@H](C)CC)N(C)C(=O)[C@@H](NC(=O)[C@H](C(C)C)N(C)C)C(C)C)C(C)C)cc3)c2)c1 [Compound 30]
pIC50 (HT29; [1]): 6.00 to 7.00 | pIC50 (HT29; [2]): 8.00 to 9.00 | pIC50 (SUM149PT; [1]): 7.00 to 8.00 | pIC50 (SUM149PT; [2]): 8.00 to 9.00 | pIC50 (NCI-H292; [1]): 7.00 to 8.00 | pIC50 (NCI-H292; [2]): 8.00 to 9.00 | pIC50 (786-O; [1]): 6.00 to 7.00 | pIC50 (786-O; [2]): 7.00 to 8.00

CCc1c2c(nc3ccccc13)-c1cc3c(c(=O)n1C2)COC(=O)[C@@]3(CC)OC(=O)[C@@H](NC(=O)[C@@H]1CCCN1C(=O)[C@H](CC(=O)O)NC(=O)CCOCCOCCOCCNC(=O)NC[C@H](NC(=O)CCCCNc1cc(C)ccn1)C(=O)N[C@@H](CC(=O)O)c1cc(Cl)cc(Cl)c1)C(C)C [Compound 29, disodium (4S)-4,11-diethyl-3,14-dioxo-3,4,12,14-tetrahydro-1H-pyrano[3′,4′:6,7]indolizino[1,2-b]quinolin-4-yl 1-{(2S,20S)-20-{[(1S)-2-carboxylato-1-(3,5-dichlorophenyl)ethyl]carbamoyl}-2-(carboxylatomethyl)-26-[(4-methylpyridin-2-yl)amino]-4,17,22-trioxo-7,10,13-trioxa-3,16,18,21-tetraazahexacosanan-1-oyl}-L-prolyl-L-valinate]
pIC50 (HT29; [1]): < 6.00 | pIC50 (HT29; [2]): 7.00 to 8.00 | pIC50 (SUM149PT; [1]): 6.00 to 7.00 | pIC50 (SUM149PT; [2]): 8.00 to 9.00 | pIC50 (NCI-H292; [1]): 6.00 to 7.00 | pIC50 (NCI-H292; [2]): 8.00 to 9.00 | pIC50 (786-O; [1]): 6.00 to 7.00 | pIC50 (786-O; [2]): 8.00 to 9.00

CC(C)[C@H](NC(=O)[C@@H]1CCCN1C(=O)[C@H](CC(=O)O)NC(=O)CCOCCOCCOCCNC(=O)NCCCC[C@H](NC(=O)N[C@@H](CCC(=O)O)C(=O)O)C(=O)O)C(=O)N=S(C)(=O)Cc1cc2nc(c1)OCCCOc1cc(F)ccc1-c1cc(ncc1F)N2 (relative stereo) [Compound 9, tetrasodium 1-[(2S,23S,27S)-23,27,29-tricarboxylato-2-(carboxylatomethyl)-4,17,25-trioxo-7,10,13-trioxa-3,16,18,24,26-pentaazanonacosanan-1-oyl]-L-prolyl-N—[(R*)—{[15,19-difluoro-3,4-dihydro-2H,11H-10,6-(azeno)-12,16-(metheno)-1,5,11,13-benzodioxadiazacyclooctadecin-8-yl]methyl}(methyl)oxo-lambda6-sulfanylidene]-L-valinamide]
pIC50 (HT29; [1]): 6.00 to 7.00 | pIC50 (HT29; [2]): 8.00 to 9.00 | pIC50 (SUM149PT; [1]): 6.00 to 7.00 | pIC50 (SUM149PT; [2]): 8.00 to 9.00 | pIC50 (NCI-H292; [1]): 6.00 to 7.00 | pIC50 (NCI-H292; [2]): 8.00 to 9.00 | pIC50 (786-O; [1]): 6.00 to 7.00 | pIC50 (786-O; [2]): 8.00 to 9.00

CCCNC(=O)Nc1cccc(S(=O)(=O)Nc2cccc([C@@H](CC(=O)O)NC(=O)Nc3ccc(NC(=O)NCCOCCOCCOCCC(=O)N[C@@H](CCC(=O)NCCOCCOCCOCCC(=O)N[C@@H](CC(=O)O)C(=O)N4CCC[C@H]4C(=O)N[C@H](C(=O)O[C@]4(CC)C(=O)OCc5c4cc4n(c5=O)Cc5c-4nc4ccccc4c5CC)C(C)C)C(=O)NCCOCCOCCOCCC(=O)N[C@@H](CC(=O)O)C(=O)N4CCC[C@H]4C(=O)N[C@H](C(=O)O[C@]4(CC)C(=O)OCc5c4cc4n(c5=O)Cc5c-4nc4ccccc4c5CC)C(C)C)cc3)c2)c1 [Compound 3]
pIC50 (HT29; [1]): 6.00 to 7.00 | pIC50 (HT29; [2]): 8.00 to 9.00 | pIC50 (SUM149PT; [1]): 7.00 to 8.00 | pIC50 (SUM149PT; [2]): 8.00 to 9.00 | pIC50 (NCI-H292; [1]): 6.00 to 7.00 | pIC50 (NCI-H292; [2]): 8.00 to 9.00 | pIC50 (786-O; [1]): 6.00 to 7.00 | pIC50 (786-O; [2]): 8.00 to 9.00

CCCNC(=O)Nc1cccc(S(=O)(=O)Nc2cccc([C@@H](CC(=O)O)NC(=O)Nc3ccc(NC(=O)NCCOCCOCCOCCC(=O)N[C@@H](CC(N)=O)C(=O)N4CCC[C@H]4C(=O)N[C@H](C(=O)NCCCN(C(=O)CO)[C@@H](c4cc(-c5cc(F)ccc5F)cn4Cc4ccccc4)C(C)(C)C)C(C)C)cc3)c2)c1 [Compound 16, N^2-(14-{4-[({(1R)-2-carboxy-1-[3-({3-[(propylcarbamoyl)amino]benzene-1-sulfonyl}amino)phenyl]ethyl}carbamoyl)amino]anilino}-14-oxo-4,7,10-trioxa-13-azatetradecanan-1-oyl}-L-asparaginyl-L-prolyl-N-{3-[{(1R)-1-[1-benzyl-4-(2,5-difluorophenyl)-1H-pyrrol-2-yl]-2,2-dimethylpropyl}(hydroxyacetyl)amino]propyl}-L-valinamide]
pIC50 (HT29; [1]): < 6.00 | pIC50 (HT29; [2]): 8.00 to 9.00 | pIC50 (SUM149PT; [1]): 6.00 to 7.00 | pIC50 (SUM149PT; [2]): 9.00 to 10.00 | pIC50 (NCI-H292; [1]): 6.00 to 7.00 | pIC50 (NCI-H292; [2]): 8.00 to 9.00 | pIC50 (786-O; [1]): < 6.00 | pIC50 (786-O; [2]): 8.00 to 9.00
